Read-outs that look alike come from different tables or passages of the source.
Test system: primary murine skeletal myocytes
Assay: TAG accumulation in primary murine skeletal myocytes
Assay type: cell-based
Conditions: Mus musculus, read-out: Activity Score (IC50), triacylglyceride (TAG) accumulation
[1] = primary murine skeletal myocytes

| SMILES | IC50 [1] [nM] | IC50 [nM] |
| --- | --- | --- |
| COc1ccc(-c2csc(NC(=O)c3ccc(OCC(=O)N4CCN(C)CC4)c(OC)c3)n2)cc1 [Cpd. 9, 3-methoxy-N-(4-(4-methoxyphenyl)thiazol-2-yl)-4-(2-(4-methylpiperazin-1-yl)-2-oxoethoxy)benzamide] | < 1000 | – |
| O=C(Nc1nc(-c2ccc(OC(F)F)cc2)cs1)c1ccc(OCC(=O)N2CCOCC2)cc1 [Cpd. 40, N-(4-(4-(difluoromethoxy)phenyl)thiazol-2-yl)-4-(2-morpholino-2-oxoethoxy)benzamide] | < 1000 | – |
| COc1cc(C(=O)Nc2nc(-c3ccc([N+](=O)[O-])cc3)cs2)ccc1OCC(=O)N1CCOCC1 [Cpd. 33, 3-methoxy-4-(2-morpholino-2-oxoethoxy)-N-(4-(4-nitrophenyl)thiazol-2-yl)benzamide] | < 1000 | – |
| COCCNC(=O)COc1ccc(C(=O)Nc2nc(-c3ccc(OC)cc3)cs2)cc1OC [Cpd. 20, 3-methoxy-4-(2-((2-methoxyethyl)amino)-2-oxoethoxy)-N-(4-(4-methoxyphenyl)thiazol-2-yl)benzamide] | 1000 to 10000 | – |
| COc1cc(C(=O)Nc2nc(-c3ccc(OC(C)C)cc3)cs2)ccc1OCC(=O)N1CCOCC1 [Cpd. 29, N-(4-(4-isopropoxyphenyl)thiazol-2-yl)-3-methoxy-4-(2-morpholino-2-oxoethoxy)benzamide] | < 1000 | – |
| COc1ccc(-c2csc(NC(=O)c3ccc(OCC(=O)N4CCOCC4)cc3)n2)cc1 [Cpd. 41, N-(4-(4-methoxyphenyl)thiazol-2-yl)-4-(2-morpholino-2-oxoethoxy)benzamide] | < 1000 | – |
| COc1cc(C(=O)Nc2nc(-c3ccc(Cl)c(Cl)c3)cs2)ccc1OCC(=O)N1CCOCC1 [Cpd. 37, N-(4-(3,4-dichlorophenyl)thiazol-2-yl)-3-methoxy-4-(2-morpholino-2-oxoethoxy)benzamide] | < 1000 | – |
| COc1ccc(-c2csc(NC(=O)c3ccc(OCC(=O)NCC4CC4)c(OC)c3)n2)cc1 [Cpd. 10, 4-(2-((cyclopropylmethyl)amino)-2-oxoethoxy)-3-methoxy-N-(4-(4-methoxyphenyl)thiazol-2-yl)benzamide] | 1000 to 10000 | – |
| COC(=O)CNC(=O)COc1ccc(C(=O)Nc2nc(-c3ccc(OC)cc3)cs2)cc1OC [Cpd. 16, Methyl (2-(2-methoxy-4-((4-(4-methoxyphenyl)thiazol-2-yl)carbamoyl)phenoxy)acetyl)glycinate] | > 10000 | – |
| COc1ccc(-c2csc(NC(=O)c3ccc(O)c(OC)c3)n2)cc1 [Cpd. 1, 4-hydroxy-3-methoxy-N-(4-(4-methoxyphenyl)thiazol-2-yl)benzamide] | > 10000 | – |
| CCNc1ccc(C(=O)Nc2nc(-c3ccc(OC)cc3)cs2)cc1OCCO [Cpd. 99, 4-(ethylamino)-3-(2-hydroxyethoxy)-N-(4-(4-methoxyphenyl)thiazol-2-yl)benzamide] | – | 1000 to 10000 |
| COc1cc(C(=O)Nc2nc(-c3ccc4c(c3)OCO4)cs2)ccc1OCC(=O)N1CCOCC1 [Cpd. 39, N-(4-(benzo[d][1,3]dioxol-5-yl)thiazol-2-yl)-3-methoxy-4-(2-morpholino-2-oxoethoxy)benzamide] | 1000 to 10000 | – |
| COc1cc(C(=O)Nc2nc(-c3ccc(C#N)cc3)cs2)ccc1O [Cpd. 6, N-(4-(4-cyanophenyl)thiazol-2-yl)-4-hydroxy-3-methoxybenzamide] | 1000 to 10000 | – |
| COc1cc(C(=O)Nc2nc(-c3ccccc3)cs2)ccc1OCC(=O)N1CCOCC1 [Cpd. 25, 3-methoxy-4-(2-morpholino-2-oxoethoxy)-N-(4-phenylthiazol-2-yl)benzamide] | < 1000 | – |
| CCN(CCN(C)C)C(=O)COc1ccc(C(=O)Nc2nc(-c3ccc(OC)cc3)cs2)cc1OC [Cpd. 15, 4-(2-((2-(dimethylamino)ethyl)(ethyl)amino)-2-oxoethoxy)-3-methoxy-N-(4-(4-methoxyphenyl)thiazol-2-yl)benzamide] | > 10000 | – |
| COc1cc(C(=O)Nc2nc(-c3ccc(N4CCCC4)cc3)cs2)ccc1OCC(=O)N1CCOCC1 [Cpd. 34, 3-methoxy-4-(2-morpholino-2-oxoethoxy)-N-(4-(4-(pyrrolidin-1-yl)phenyl)thiazol-2-yl)benzamide] | < 1000 | – |

Continued, in another order:

| IC50 [1] [nM] | SMILES | IC50 [nM] |
| --- | --- | --- |
| 1000 to 10000 | COc1ccc2nc(NC(=O)c3ccc(OCC(=O)N4CCOCC4)cc3)sc2c1 [Cpd. 88, N-(6-methoxybenzo[d]thiazol-2-yl)-4-(2-morpholino-2-oxoethoxy)benzamide] | – |
| < 1000 | CCc1ccc(-c2csc(NC(=O)c3ccc(OCC(=O)N4CCOCC4)cc3)n2)cc1 [Cpd. 44, N-(4-(4-ethylphenyl)thiazol-2-yl)-4-(2-morpholino-2-oxoethoxy)benzamide] | – |
| < 1000 | O=C(Nc1nc(-c2ccccc2F)cs1)c1ccc(OCC(=O)N2CCOCC2)cc1 [Cpd. 49, N-(4-(2-fluorophenyl)thiazol-2-yl)-4-(2-morpholino-2-oxoethoxy)benzamide] | – |
| < 1000 | CNC(=O)CNc1ccc(C(=O)Nc2nc(-c3ccc(OC)cc3)cs2)cc1 [compound 67, N-(4-(4-methoxyphenyl)thiazol-2-yl)-4-((2-(methylamino)-2-oxoethyl)amino)benzamide] | – |
| < 1000 | CC(C)Oc1ccc(-c2csc(NC(=O)c3ccc(OCC(=O)N4CCOCC4)cc3)n2)c(Cl)c1 [Cpd. 55, N-(4-(2-chloro-4-isopropoxyphenyl)thiazol-2-yl)-4-(2-morpholino-2-oxoethoxy)benzamide] | – |
| < 1000 | O=C(Nc1nc(-c2ccccc2Cl)cs1)c1ccc(OCC(=O)N2CCOCC2)cc1 [Cpd. 48, N-(4-(2-chlorophenyl)thiazol-2-yl)-4-(2-morpholino-2-oxoethoxy)benzamide] | – |
| > 10000 | COc1ccc(-c2csc(NC(=O)C3CCC(OCC(=O)N4CCOCC4)CC3)n2)cc1 (centres unmarked) [Cpd. 97, N-(4-(4-methoxyphenyl)thiazol-2-yl)-4-(2-morpholino-2-oxoethoxy)cyclohexane-1-carboxamide] | – |
| < 1000 | O=C(Nc1nc(-c2ccc(F)cc2)cs1)c1ccc(OCC(=O)N2CCOCC2)cc1 [Cpd. 46, N-(4-(4-fluorophenyl)thiazol-2-yl)-4-(2-morpholino-2-oxoethoxy)benzamide] | – |
| > 10000 | COc1cc(C(=O)Nc2ncc(Cc3cccc(C(F)(F)F)c3)s2)ccc1OCC(=O)N1CCOCC1 [Cpd. 100, 3-methoxy-4-(2-morpholino-2-oxoethoxy)-N-(5-(3-(trifluoromethyl)benzyl)thiazol-2-yl)benzamide] | – |
| < 1000 | O=C(Nc1nc(-c2cccc(Cl)c2)cs1)c1ccc(OCC(=O)N2CCOCC2)cc1 [Cpd. 52, N-(4-(3-chlorophenyl)thiazol-2-yl)-4-(2-morpholino-2-oxoethoxy)benzamide] | – |
| < 1000 | COc1ccc(-c2csc(NC(=O)CCC(=O)N3CCOc4ccccc43)n2)cc1 [Cpd. 81, 4-(2,3-dihydro-4H-benzo[b][1,4]oxazin-4-yl)-N-(4-(4-methoxyphenyl)thiazol-2-yl)-4-oxobutanamide] | – |
| < 1000 | O=C(Nc1nc(-c2cccc(F)c2)cs1)c1ccc(OCC(=O)N2CCOCC2)cc1 [Cpd. 53, N-(4-(3-fluorophenyl)thiazol-2-yl)-4-(2-morpholino-2-oxoethoxy)benzamide] | – |
| < 1000 | CNC(=O)CNc1ccc(C(=O)Nc2nc(-c3ccc(OC)cc3Cl)cs2)cc1 [compound 71, N-(4-(2-chloro-4-methoxyphenyl)thiazol-2-yl)-4-((2-(methylamino)-2-oxoethyl)amino)benzamide] | – |
